Measurements: ChEMBL document CHEMBL1201862, “PubChem BioAssay data set” (2004)
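Results reflect a 48-hour exposure of cells in 96-well plates to compound at five concentrations. GI50 = concentration required for 50% inhibition of growth.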 Activity calls are given as the source filed them. Cut-off read from the data, not from the text of the source: active = GI50 up to about 1.1 µM and inactive = higher.

Tests used:
Experiment in all cases: inhibition of tumour cell growth, NCI panel, 48 h
[1] = test system: 786-0
[2] = test system: A498
[3] = test system: A549
[4] = test system: ACHN
[5] = test system: BT-549
[6] = test system: CAKI-1
[7] = test system: CCRF-CEM
[8] = test system: COLO 205
[9] = test system: DU-145
[10] = test system: EKVX
[11] = test system: HCC 2998
[12] = test system: HCT-116
[13] = test system: HCT-15
[14] = test system: HL-60
[15] = test system: HOP-62
[16] = test system: HOP-92
[17] = test system: HT-29
[18] = test system: Hs-578T
[19] = test system: IGROV-1
[20] = test system: K562
[21] = test system: KM12
[22] = test system: LOX IMVI
[23] = test system: M14
[24] = test system: MCF7
[25] = test system: MDA-MB-231
[26] = test system: MDA-MB-435
[27] = test system: MDA-N
[28] = test system: MOLT-4
[29] = test system: Malme-3M
[30] = test system: NCI-H226
[31] = test system: NCI-H23
[32] = test system: NCI-H522
[33] = test system: NCI/ADR-RES
[34] = test system: OVCAR-4
[35] = test system: OVCAR-5
[36] = test system: OVCAR-8
[37] = test system: PC-3
[38] = test system: RPMI-8226
[39] = test system: RXF 393
[40] = test system: SF-268
[41] = test system: SF-295
[42] = test system: SF-539
[43] = test system: SK-MEL-28
[44] = test system: SK-MEL-2
[45] = test system: SK-MEL-5
[46] = test system: SK-OV-3
[47] = test system: SN12C
[48] = test system: SNB-19
[49] = test system: SNB-75
[50] = test system: SR
[51] = test system: SW-620
[52] = test system: T47D
[53] = test system: TK-10
[54] = test system: U-251
[55] = test system: UACC-257
[56] = test system: UACC-62
[57] = test system: UO-31
[58] = test system: OVCAR-3
[59] = test system: NCI-H460

`CC(=O)Nc1ccc(-c2nc3ccccc3s2)cc1Cl` was tested. Which GI50 [1] did it give?
The GI50 was > 78.3 µM (inactive).

And the GI50 [2]?
Its GI50 is 5.68 µM (inactive).

And the GI50 [3]?
Its GI50 is 99.8 µM (inactive).

And the GI50 [4]?
Its GI50 is > 74 µM (inactive).

What about the GI50 [5] of the same compound?
Its GI50 is > 75.9 µM (inactive).

And the GI50 [6]?
The GI50 was 56.5 µM (inactive).

What about the GI50 [7] of the same compound?
The GI50 was > 100 µM (inactive).

What about the GI50 [8] of the same compound?
The GI50 was > 100 µM (inactive).

What about the GI50 [9] of the same compound?
The GI50 was 55.6 µM (inactive).

What about the GI50 [10] of the same compound?
The GI50 was 5.6 µM (inactive).

And the GI50 [11]?
The GI50 was 0.23 µM (active).

What about the GI50 [12] of the same compound?
The GI50 was 58.7 µM (inactive).

And the GI50 [13]?
Its GI50 is 41.4 µM.

What about the GI50 [14] of the same compound?
Its GI50 is > 100 µM (inactive).

And the GI50 [15]?
Its GI50 is 22.7 µM (inactive).

What about the GI50 [16] of the same compound?
Its GI50 is 54.2 µM (inactive).

And the GI50 [17]?
The GI50 was > 95.5 µM (inactive).

And the GI50 [18]?
Its GI50 is 17.9 µM (inactive).

What about the GI50 [19] of the same compound?
Its GI50 is < 0.0217 µM (active).

And the GI50 [20]?
The GI50 was > 100 µM (inactive).

And the GI50 [21]?
The GI50 was 57.4 µM (inactive).

And the GI50 [22]?
The GI50 was > 86.5 µM (inactive).

What about the GI50 [23] of the same compound?
Its GI50 is 68.7 µM (inactive).

What about the GI50 [24] of the same compound?
The GI50 was < 0.0399 µM (active).

And the GI50 [25]?
Its GI50 is 67.8 µM (inactive).

And the GI50 [26]?
The GI50 was > 100 µM (inactive).

And the GI50 [27]?
The GI50 was > 100 µM (inactive).

What about the GI50 [28] of the same compound?
Its GI50 is > 83.4 µM (inactive).

And the GI50 [29]?
Its GI50 is > 100 µM (inactive).

And the GI50 [30]?
The GI50 was 0.762 µM (active).

And the GI50 [31]?
Its GI50 is 51.4 µM (inactive).

What about the GI50 [32] of the same compound?
The GI50 was 54.5 µM (inactive).

And the GI50 [33]?
Its GI50 is > 86.9 µM (inactive).

What about the GI50 [34] of the same compound?
Its GI50 is > 100 µM (inactive).

What about the GI50 [35] of the same compound?
Its GI50 is 0.171 µM (active).

What about the GI50 [36] of the same compound?
The GI50 was 66.5 µM (inactive).

And the GI50 [37]?
Its GI50 is > 100 µM (inactive).

What about the GI50 [38] of the same compound?
Its GI50 is > 100 µM (inactive).

What about the GI50 [39] of the same compound?
The GI50 was 26.5 µM (inactive).

And the GI50 [40]?
Its GI50 is 56.8 µM (inactive).

What about the GI50 [41] of the same compound?
The GI50 was 41.9 µM (inactive).

And the GI50 [42]?
Its GI50 is 16.3 µM (inactive).

What about the GI50 [43] of the same compound?
The GI50 was > 100 µM (inactive).

What about the GI50 [44] of the same compound?
Its GI50 is > 100 µM (inactive).

What about the GI50 [45] of the same compound?
Its GI50 is > 100 µM (inactive).

What about the GI50 [46] of the same compound?
The GI50 was 40.6 µM (inactive).

What about the GI50 [47] of the same compound?
Its GI50 is > 100 µM (inactive).

What about the GI50 [48] of the same compound?
The GI50 was 67.5 µM (inactive).

And the GI50 [49]?
The GI50 was 36.7 µM (inactive).

What about the GI50 [50] of the same compound?
Its GI50 is > 100 µM (inactive).

And the GI50 [51]?
The GI50 was > 100 µM (inactive).

What about the GI50 [52] of the same compound?
The GI50 was 0.395 µM (active).

What about the GI50 [53] of the same compound?
The GI50 was 0.0664 µM (active).

What about the GI50 [54] of the same compound?
The GI50 was > 84.1 µM (inactive).

What about the GI50 [55] of the same compound?
Its GI50 is > 41.1 µM (inactive).

What about the GI50 [56] of the same compound?
The GI50 was > 73.5 µM (inactive).

What about the GI50 [57] of the same compound?
The GI50 was 27.7 µM (inactive).

Which results are given for `c1n[nH]cc1C12C3C4C5C3C1C5C42` (stereo not given)?
GI50 [1]: > 100 µM (inactive); GI50 [2]: > 100 µM (inactive); GI50 [3]: > 100 µM (inactive); GI50 [4]: > 100 µM (inactive); GI50 [5]: > 100 µM (inactive); GI50 [6]: > 100 µM (inactive); GI50 [7]: > 100 µM (inactive); GI50 [8]: > 100 µM (inactive); GI50 [9]: > 100 µM (inactive); GI50 [10]: 85.7 µM (inactive); GI50 [11]: > 100 µM (inactive); GI50 [12]: > 100 µM (inactive); GI50 [13]: > 100 µM; GI50 [14]: 75.9 µM (inactive); GI50 [15]: > 100 µM (inactive); GI50 [16]: 65.6 µM (inactive); GI50 [17]: > 100 µM (inactive); GI50 [18]: > 100 µM (inactive); GI50 [19]: > 100 µM (inactive); GI50 [20]: > 100 µM (inactive); GI50 [21]: > 100 µM (inactive); GI50 [22]: > 100 µM (inactive); GI50 [23]: > 100 µM (inactive); GI50 [24]: > 100 µM (inactive); GI50 [25]: > 100 µM (inactive); GI50 [26]: > 100 µM (inactive); GI50 [27]: > 100 µM (inactive); GI50 [28]: > 100 µM (inactive); GI50 [29]: > 100 µM (inactive); GI50 [30]: > 100 µM (inactive); GI50 [31]: > 100 µM (inactive); GI50 [32]: > 100 µM (inactive); GI50 [33]: > 100 µM (inactive); GI50 [58]: > 100 µM (inactive); GI50 [34]: > 100 µM (inactive); GI50 [35]: 94.6 µM (inactive); GI50 [36]: > 100 µM (inactive); GI50 [37]: > 100 µM (inactive); GI50 [38]: > 100 µM (inactive); GI50 [39]: > 100 µM (inactive); GI50 [40]: > 100 µM (inactive); GI50 [41]: > 100 µM (inactive); GI50 [42]: > 100 µM (inactive); GI50 [43]: > 100 µM (inactive); GI50 [44]: > 100 µM (inactive); GI50 [45]: > 100 µM (inactive); GI50 [46]: > 100 µM (inactive); GI50 [47]: > 100 µM (inactive); GI50 [48]: > 100 µM (inactive); GI50 [49]: 69.2 µM (inactive); GI50 [50]: > 100 µM (inactive); GI50 [51]: > 100 µM (inactive); GI50 [52]: 85.3 µM (inactive); GI50 [53]: > 100 µM (inactive); GI50 [54]: > 100 µM (inactive); GI50 [55]: > 100 µM (inactive); GI50 [56]: > 100 µM (inactive); GI50 [57]: > 100 µM (inactive)

Which results are given for `S=C1NC2=C(COC/C2=C\c2ccccc2Cl)C(c2ccccc2Cl)N1` (stereo not given)?
GI50 [1]: 36 µM (inactive); GI50 [2]: 80 µM (inactive); GI50 [4]: 34.4 µM (inactive); GI50 [5]: 48.8 µM (inactive); GI50 [6]: 73.8 µM (inactive); GI50 [7]: 8.75 µM (inactive); GI50 [8]: 18.5 µM (inactive); GI50 [9]: 70.8 µM (inactive); GI50 [10]: 33.2 µM (inactive); GI50 [11]: 6.98 µM (inactive); GI50 [12]: 17.5 µM (inactive); GI50 [13]: 16.8 µM; GI50 [14]: 11.4 µM (inactive); GI50 [15]: 61.4 µM (inactive); GI50 [16]: 36.4 µM (inactive); GI50 [18]: > 100 µM (inactive); GI50 [19]: 39.1 µM (inactive); GI50 [20]: 14.9 µM (inactive); GI50 [21]: 11 µM (inactive); GI50 [22]: 21.2 µM (inactive); GI50 [23]: 25.8 µM (inactive); GI50 [24]: 16.4 µM (inactive); GI50 [25]: > 100 µM (inactive); GI50 [26]: 25.7 µM (inactive); GI50 [27]: 32.7 µM (inactive); GI50 [28]: 7.5 µM (inactive); GI50 [30]: 27.4 µM (inactive); GI50 [31]: 34.9 µM (inactive); GI50 [59]: 18.8 µM (inactive); GI50 [32]: 29.6 µM (inactive); GI50 [33]: 21.2 µM (inactive); GI50 [58]: 32.1 µM (inactive); GI50 [34]: 31.3 µM (inactive); GI50 [35]: > 100 µM (inactive); GI50 [36]: 29.8 µM (inactive); GI50 [37]: 14.3 µM (inactive); GI50 [38]: 5.26 µM (inactive); GI50 [39]: 33.3 µM (inactive); GI50 [40]: 51.4 µM (inactive); GI50 [41]: 35.2 µM (inactive); GI50 [42]: 34.9 µM (inactive); GI50 [44]: 21.2 µM (inactive); GI50 [45]: 15.6 µM (inactive); GI50 [46]: > 100 µM (inactive); GI50 [47]: 33 µM (inactive); GI50 [48]: 50.5 µM (inactive); GI50 [49]: 49.5 µM (inactive); GI50 [50]: 2.84 µM (inactive); GI50 [51]: 25.5 µM (inactive); GI50 [52]: 41.5 µM (inactive); GI50 [53]: 55.8 µM (inactive); GI50 [54]: 25.1 µM (inactive); GI50 [55]: 56 µM (inactive); GI50 [56]: 65.3 µM (inactive); GI50 [57]: 19.5 µM (inactive)
